We go through 21 molecules from US20250197372A1 (priority 2020, published 2025).

In experiment [1] the target is rat maltase (partially purified alpha-glucosidase from intestinal rat powder). The experiment in a line: Intestinal alpha-glucosidase assay, maltose substrate (Glucose GO Kit). Type of experiment: biochemical. The procedure, abridged: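 Glucose release is the read-out: compounds at multiple dilutions are first held with partially purified rat intestinal alpha-glucosidase for 60 min at 37 °C, after which maltose or sucrose substrate reacts for 30 min at 37 °C before a 5 min 90 °C stop. IC50 comes from a four-parameter logistic fit.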

Experiment [2] concerns the target T1, recombinant alpha-glucosidase I (human full-length glucosidase I, Glu 1) (Homo sapiens, UniProt Q13724).
T1 construct: 6-His (C); made in house; host or cells: HEK-293T cells transduced with BacMam virus (virus raised in Sf9)
T1 sequence (Q13724 1-837): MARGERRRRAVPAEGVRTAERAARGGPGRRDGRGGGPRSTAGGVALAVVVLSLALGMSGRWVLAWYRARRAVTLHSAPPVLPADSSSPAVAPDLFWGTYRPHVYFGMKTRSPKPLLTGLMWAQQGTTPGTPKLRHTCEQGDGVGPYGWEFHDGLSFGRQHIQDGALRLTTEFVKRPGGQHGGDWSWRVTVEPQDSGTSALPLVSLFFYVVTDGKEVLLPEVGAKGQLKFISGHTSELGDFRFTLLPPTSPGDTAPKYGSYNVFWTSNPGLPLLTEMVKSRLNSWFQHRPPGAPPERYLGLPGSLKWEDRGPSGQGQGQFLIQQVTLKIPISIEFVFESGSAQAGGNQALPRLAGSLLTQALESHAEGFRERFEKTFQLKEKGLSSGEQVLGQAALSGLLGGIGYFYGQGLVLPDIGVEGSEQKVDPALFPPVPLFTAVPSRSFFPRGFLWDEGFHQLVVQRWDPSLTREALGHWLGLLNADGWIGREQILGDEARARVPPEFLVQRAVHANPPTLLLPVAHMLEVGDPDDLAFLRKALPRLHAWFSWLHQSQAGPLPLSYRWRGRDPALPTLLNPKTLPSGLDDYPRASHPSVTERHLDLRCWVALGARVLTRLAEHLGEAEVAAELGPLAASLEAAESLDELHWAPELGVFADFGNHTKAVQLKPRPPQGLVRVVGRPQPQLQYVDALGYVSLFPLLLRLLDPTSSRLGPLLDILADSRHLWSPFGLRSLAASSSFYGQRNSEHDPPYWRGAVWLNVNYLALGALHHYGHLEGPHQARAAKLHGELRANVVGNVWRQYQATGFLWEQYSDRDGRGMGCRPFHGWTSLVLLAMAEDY
The experiment in a line: Alpha-glucosidase I assay (Amplex Red glucose detection, synthetic trisaccharide substrate). The experiment is classed as biochemical. The settings on record: Glucosidase 1; read-out: Glu 1 IC50. The procedure, abridged: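 Human full-length glucosidase I, His-tagged, […] and Ni-purified. Enzyme preincubated with compound dilutions 60 min at 37° C, then synthetic trisaccharide substrate 90 min at 37° C; stopped with 1.5M Tris pH 8.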

By IC50 is commonly meant the concentration that gives 50% inhibition. For the molecule `CN(C)Cc1ccc(NCCCCCCN2C[C@H](O)[C@@H](O)[C@H](O)[C@H]2CO)c(C#N)c1` [Compound 1257, 5-[(dimethylamino)methyl]-2-({6-[(2R,3R,4R,5S)-3,4,5-trihydroxy-2-(hydroxymethyl)piperidin-1-yl]hexyl}amino)benzonitrile], the IC50 stood at 8 nM in experiment [1] and 115 nM in experiment [2].
On to `Cc1cc(NCc2cccc(CN3C[C@H](O)[C@@H](O)[C@H](O)[C@H]3CO)c2)cc(-c2cccnn2)c1` [Compound 1034, (2R,3R,4R,5S)-2-(hydroxymethyl)-1-{[3-({[3-methyl-5-(pyridazin-3-yl)phenyl]amino}methyl)phenyl]methyl}piperidine-3,4,5-triol], for which the values for the 50% inhibitory concentration (IC50) in experiment [1] and in experiment [2] were 33 nM and 20 nM, respectively.
On the same counts, the results for `CC#Cc1ccc(NCCCCCCN2C[C@H](O)[C@@H](O)[C@H](O)[C@H]2CO)c([N+](=O)[O-])c1` [Compound 1290, (2R,3R,4R,5S)-2-(hydroxymethyl)-1-(6-{[2-nitro-4-(prop-1-yn-1-yl)phenyl]amino}hexyl)piperidine-3,4,5-triol] are below 10 nM and 36 nM.
On the same counts, the results for `NC(=O)CCN(CCNc1ccc(-c2ncccn2)cc1[N+](=O)[O-])CCN1C[C@H](O)[C@@H](O)[C@H](O)[C@H]1CO` [Compound 1226, 3-[(2-{[2-nitro-4-(pyrimidin-2-yl)phenyl]amino}ethyl)({2-[(2R,3R,4R,5S)-3,4,5-trihydroxy-2-(hydroxymethyl)piperidin-1-yl]ethyl})amino]propanamide] are 4630 nM and 9530 nM.
For the molecule `O=[N+]([O-])c1cc(Br)ccc1NCc1ccc(CN2C[C@H](O)[C@@H](O)[C@H](O)[C@H]2CO)cc1` [Compound 1030, (2R,3R,4R,5S)-1-[(4-{[(4-bromo-2-nitrophenyl)amino]methyl}phenyl)methyl]-2-(hydroxymethyl)piperidine-3,4,5-triol], the half-maximal inhibitory concentration (IC50) in experiment [1] and in experiment [2] was below 1 nM throughout.
With `CS(C)=NS(=O)(=O)c1cc(-c2ncccn2)ccc1NCCCCCCN1C[C@H](O)[C@@H](O)[C@H](O)[C@H]1CO` [Compound 1247, N-(dimethyl-2-sulfanylidene)-5-(pyrimidin-2-yl)-2-({6-[(2R,3R,4R,5S)-3,4,5-trihydroxy-2-(hydroxymethyl)piperidin-1-yl]hexyl}amino)benzene-1-sulfonamide], the IC50 amounted to 18 nM in experiment [1] and 493 nM in experiment [2].
Consider `OC[C@@H]1[C@@H](O)[C@H](O)[C@@H](O)CN1CCCCCCNc1ccc(-c2ncccn2)cc1C(F)(F)F` [Compound 1258, (2R,3R,4R,5S)-2-(hydroxymethyl)-1-(6-{[4-(pyrimidin-2-yl)-2-(trifluoromethyl)phenyl]amino}hexyl)piperidine-3,4,5-triol], for which the half-inhibitory concentration (IC50) in experiment [1] was 19 nM; in experiment [2], 32 nM.
Turning to `COc1ccc(C#CCCCCCN2C[C@H](O)[C@@H](O)[C@H](O)[C@H]2CO)cc1` [Compound 1338, (2R,3R,4R,5S)-2-(hydroxymethyl)-1-[7-(4-methoxyphenyl)hept-6-yn-1-yl]piperidine-3,4,5-triol], the IC50 amounted to 146 nM in experiment [1] and 999 nM in experiment [2].
Regarding `CS(=O)(=O)c1cc(NCc2cccc(CN3C[C@H](O)[C@@H](O)[C@H](O)[C@H]3CO)c2)cc(N2CCOCC2)c1` [Compound 1036, (2R,3R,4R,5S)-2-(hydroxymethyl)-1-{[3-({[3-methanesulfonyl-5-(morpholin-4-yl)phenyl]amino}methyl)phenyl]methyl}piperidine-3,4,5-triol], the half-inhibitory concentration (IC50) in experiment [1] turned out to be 77 nM; in experiment [2] it was 30 nM.
On the same counts, the results for `COCCCCCN(CCCNc1ccc(N=[N+]=[N-])cc1[N+](=O)[O-])CCCN1C[C@H](O)[C@@H](O)[C@H](O)[C@H]1CO` [Compound 1221, (2R,3R,4R,5S)-1-[3-({3-[(4-azido-2-nitrophenyl)amino]propyl}(5-methoxypentyl)amino)propyl]-2-(hydroxymethyl)piperidine-3,4,5-triol] are 233 nM and 2230 nM.
On the same counts, the results for `Cc1nc(=O)c2cc(-c3ncccn3)ccc2n1CCCCCCN1C[C@H](O)[C@@H](O)[C@H](O)[C@H]1CO` [Compound 1246, 2-methyl-6-(pyrimidin-2-yl)-1-{6-[(2R,3R,4R,5S)-3,4,5-trihydroxy-2-(hydroxymethyl)piperidin-1-yl]hexyl}-1,4-dihydroquinazolin-4-one] are above 100000 nM and 112 nM.
With `[N-]=[N+]=Nc1ccc(NCCC(O)C(O)CCN2C[C@H](O)[C@@H](O)[C@H](O)[C@H]2CO)c([N+](=O)[O-])c1` (stereo partly drawn) [Compound 1270, (2R,3R,4R,5S)-1-{6-[(4-azido-2-nitrophenyl)amino]-3,4-dihydroxy-hexyl}-2-(hydroxymethyl)piperidine-3,4,5-triol], the IC50 in experiment [1] was 57 nM; in experiment [2], 358 nM.
Regarding `Nc1ccc(NCCn2cc(CCN3C[C@H](O)[C@@H](O)[C@H](O)[C@H]3CO)nn2)c([N+](=O)[O-])c1Cl` [Compound 1253, (2R,3R,4R,5S)-1-[2-(1-{2-[(4-amino-3-chloro-2-nitrophenyl)amino]ethyl}-1H-1,2,3-triazol-4-yl)ethyl]-2-(hydroxymethyl)piperidine-3,4,5-triol], the IC50 was 777 nM in experiment [1] and 1750 nM in experiment [2].
On to `Cc1cc(NCc2cccc(CN3C[C@H](O)[C@@H](O)[C@H](O)[C@H]3CO)c2)cc(N2CCOCC2)c1` [Compound 1031, (2R,3R,4R,5S)-2-(hydroxymethyl)-1-{[3-({[3-methyl-5-(morpholin-4-yl)phenyl]amino}methyl)phenyl]methyl}piperidine-3,4,5-triol], for which the IC50 in experiment [1] came to 174 nM; in experiment [2], 93 nM.
As to `CS(=O)(=O)c1cc(Br)cc(NCc2ccc(CN3C[C@H](O)[C@@H](O)[C@H](O)[C@H]3CO)cc2)c1` [Compound 1025, (2R,3R,4R,5S)-1-[(4-{[(3-bromo-5-methanesulfonylphenyl)amino]methyl}phenyl)methyl]-2-(hydroxymethyl)piperidine-3,4,5-triol], the 50% inhibitory concentration (IC50) in experiment [1] is 4 nM; in experiment [2], 21 nM.
On to `Cc1cc(NCc2cccc(CN3C[C@H](O)[C@@H](O)[C@H](O)[C@H]3CO)n2)cc(-c2ccco2)c1` [Compound 1334, (2R,3R,4R,5S)-1-{[6-({[3-(furan-2-yl)-5-methylphenyl]amino}methyl)pyridin-2-yl]methyl}-2-(hydroxymethyl)piperidine-3,4,5-triol], for which the figures for the concentration for half-maximal inhibition (IC50) in experiment [1] and in experiment [2] were 224 nM and 1080 nM, respectively.
On the same counts, the results for `COc1cc(-c2ncccn2)ccc1NCCCCCCN1C[C@H](O)[C@@H](O)[C@H](O)[C@H]1CO` [Compound 1231, (2R,3R,4R,5S)-2-(hydroxymethyl)-1-(6-{[2-methoxy-4-(pyrimidin-2-yl)phenyl]amino}hexyl)piperidine-3,4,5-triol] are 30 nM and 187 nM.
Consider `Cc1cc(NCc2cnc(CN3C[C@H](O)[C@@H](O)[C@H](O)[C@H]3CO)cn2)cc(N2CCOCC2)c1` [Compound 1332, (2R,3R,4R,5S)-2-(hydroxymethyl)-1-{[5-({[3-methyl-5-(morpholin-4-yl)phenyl]amino}methyl)pyrazin-2-yl]methyl}piperidine-3,4,5-triol], for which the IC50 came out at 573 nM in experiment [1] and 2820 nM in experiment [2].
On the same counts, the results for `N#Cc1cc(NCc2cccc(CN3C[C@H](O)[C@@H](O)[C@H](O)[C@H]3CO)c2)cc(N2CCOCC2)c1` [Compound 1042, 3-(morpholin-4-yl)-5-{[(3-{[(2R,3R,4R,5S)-3,4,5-trihydroxy-2-(hydroxymethyl)piperidin-1-yl]methyl}phenyl)methyl]amino}benzonitrile] are 29 nM and 30 nM.
With `NS(=O)(=O)c1cc(-c2ncccn2)ccc1NCCCCCCN1C[C@H](O)[C@@H](O)[C@H](O)[C@H]1CO` [Compound 1265, 5-(pyrimidin-2-yl)-2-({6-[(2R,3R,4R,5S)-3,4,5-trihydroxy-2-(hydroxymethyl)piperidin-1-yl]hexyl}amino)benzene-1-sulfonamide], the 50% inhibitory concentration (IC50) worked out at 5 nM in experiment [1] and 282 nM in experiment [2].
On the same counts, the results for `[N-]=[N+]=Nc1ccc(NCCN2CCN(CCN3C[C@H](O)[C@@H](O)[C@H](O)[C@H]3CO)CC2)c([N+](=O)[O-])c1` [Compound 1273, (2R,3R,4R,5S)-1-[2-(4-{2-[(4-azido-2-nitrophenyl)amino]ethyl}piperazin-1-yl)ethyl]-2-(hydroxymethyl)piperidine-3,4,5-triol] are 646 nM and 13000 nM.
